# Measurements taken from article PMC9329353, “Structures of Atm1 provide insight into [2Fe-2S] cluster export from mitochondria” (Nature Communications, 2022).
# How the values were obtained:
# CtAtm1 [1] = target: T1, CtAtm1 (Thermochaetoides thermophila, UniProt G0SBE6, E603Q); experiment: cryo-EM structure, […] Å; settings: nanodiscs, 1 mM ATP, 1 mM GSSG, 1 mM MgCl2; occluded state; nucleotide-binding domains
# T1 construct: gene CTHT_0050000; full-length, C-terminal TEV site and His8 (pET-52b-CtATM1-TEV-His8), E. coli C43(DE3); DDM or MSP1D1 nanodiscs; homodimer; first 94 and last 26 residues not modelled (580 modelled)
# T1 sequence (G0SBE6 entry or part of it E603Q): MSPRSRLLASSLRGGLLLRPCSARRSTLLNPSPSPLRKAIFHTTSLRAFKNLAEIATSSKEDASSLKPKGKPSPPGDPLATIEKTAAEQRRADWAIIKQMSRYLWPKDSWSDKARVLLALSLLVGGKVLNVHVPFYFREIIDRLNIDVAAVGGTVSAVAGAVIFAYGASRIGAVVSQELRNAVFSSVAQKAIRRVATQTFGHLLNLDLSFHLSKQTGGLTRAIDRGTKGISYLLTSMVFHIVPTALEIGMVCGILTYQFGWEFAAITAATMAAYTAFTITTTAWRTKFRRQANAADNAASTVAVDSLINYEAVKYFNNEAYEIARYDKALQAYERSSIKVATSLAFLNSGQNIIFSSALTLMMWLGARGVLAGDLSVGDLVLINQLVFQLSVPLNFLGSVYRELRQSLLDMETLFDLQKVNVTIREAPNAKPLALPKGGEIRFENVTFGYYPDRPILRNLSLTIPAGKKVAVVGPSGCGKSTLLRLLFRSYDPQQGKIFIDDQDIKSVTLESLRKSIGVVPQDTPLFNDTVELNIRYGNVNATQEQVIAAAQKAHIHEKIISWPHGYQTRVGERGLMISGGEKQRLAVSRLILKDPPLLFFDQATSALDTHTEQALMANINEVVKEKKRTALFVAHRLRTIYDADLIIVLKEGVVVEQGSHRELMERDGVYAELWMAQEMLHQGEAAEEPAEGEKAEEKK
# CtAtm1 [2] = target: T2, CtAtm1 (Thermochaetoides thermophila, UniProt G0SBE6); experiment: ATPase assay (phosphate release, absorbance at […] nm); assay type: biochemical; settings: 1 mM ATP, 5 mM MgCl2, 37 °C, detergent or nanodisc; no exogenous cargo
# T2 construct: gene CTHT_0050000; full-length, C-terminal TEV site and His8 (pET-52b-CtATM1-TEV-His8), E. coli C43(DE3); DDM or MSP1D1 nanodiscs; homodimer; first 94 and last 26 residues not modelled (580 modelled)
# T2 sequence (G0SBE6 entry or part of it): as the sequence (G0SBE6 entry or part of it E603Q) above, with Q603E counted along it
# [3] = target: CtAtm1 (ABC transporter of mitochondria 1 from Chaetomium thermophilum), wild type (Chaetomium thermophilum); experiment: cryo-EM structure; wild-type CtAtm1 in lipid nanodiscs (MSP1D1), incubated with 1 mM ATP and 2 mM MgCl2 for 30 min on ice, no cargo added; inward-facing open state, 3.0 Å
stoichiometry N [3],Compound,"cryo-EM structure, 2.8 Å (CtAtm1 [1])","ATPase assay (phosphate release, absorbance at 620 nm) (CtAtm1 [2])"
–,Nc1ncnc2c1ncn2[C@@H]1O[C@H](COP(=O)(O)OP(=O)(O)OP(=O)(O)O)[C@@H](O)[C@H]1O [ATP],two ATP molecules are readily identified in the cryo-EM density,exhibited clear and comparably robust ATP hydrolysis activity in detergent solution
2,"CtAtm1 (ABC transporter of mitochondria 1 from Chaetomium thermophilum), wild type (natural protein)",–,–
